The values that follow come from patent US20220153732A1, “PROTEIN SECRETION INHIBITORS” (KEZAR LIFE SCIENCES, priority 2019, published 2022).

Common to all, as to type: cell-based
For experiment [1], the system named is TNFα-FL/Gaussia Luciferase. Nature of the experiment: Dox Induced TNFα-FL-Gluc Assay. Particulars: 293FRT/TO cells, read-out: 24 hr Dox Inducible TNFaFLGluc 293FRT/TO: Mean IC50. Summed up:
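A stable T-REx cell line carrying doxycycline-inducible TNFα-FL/Gaussia luciferase was plated the day before assay. Compound dilutions in DMSO/media containing doxycycline were then added and incubated at 37° C, 5% CO2.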

Experiment [2] relates to human multiple myeloma cell line NCI-H929. Nature of the experiment: H929 Cell Viability Assay. Conditions: 48 hr, NCI-H929 cells, Celltiter-Glo, read-out: 48 hr H929 Viability Celltiter-Glo: Mean EC50. As to the method:
Plates were incubated at 37° C., 5% CO2 for 48 hours. After 48 hours, Celltiter-Glo® (Promega) was added to each well and luciferase signal was quantified using Tecan Infinite M1000 Pro for cell viability determination.
For chemical structures that include one or more stereoisomers, but are illustrated without indicating stereochemistry, the assay data refers to a mixture of stereoisomers.
A general note: In ATP-based viability assays light output follows the ATP content of the culture.

The subject of experiment [3] is HER3-ss+4aa/Gaussia Luciferase. Nature of the experiment: Dox-Induced Her3-ss-Gluc Assay. Particulars: 293FRT/TO cells, read-out: 24 hr Dox Inducible Her3(ss + 4)Gluc 293FRT/TO: Mean IC50. Summed up:
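Stable T-REx cell line carrying a doxycycline-regulated HER3-ss+4aa/Gaussia luciferase insert, plated the day before assay. Compound dilutions in DMSO/media with doxycycline added, then incubated at 37° C., 5% CO2. Stereoisomer mixtures tested where stereochemistry is not drawn.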

For experiment [4], the system named is PD1-ss+10aa/Gaussia Luciferase. Nature of the experiment: Dox-Induced PD1-ss-Gluc Assay. Conditions: 293FRT/TO cells, read-out: 24 hr Dox Inducible PD1ssGluc 293FRT/TO: Mean IC50. In outline: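 Stable cell line carrying PD1-ss+10aa/Gaussia luciferase cDNA under T-REx (doxycycline-inducible) control, plated the day before assay. Compound dilutions in DMSO/media containing doxycycline added and incubated at 37° C, 5% CO2. Undefined stereocentres: data refer to stereoisomer mixtures.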

Experiment [5] relates to human multiple myeloma cell line U266B1. The experiment is described as follows: U266 Cell Viability Assay. Conditions: U-266, 48 hr, U266B1 cells, Celltiter-Glo, read-out: 48 hr U266 Viability Celltiter-Glo: Mean EC50. In outline:
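U266B1 myeloma cells treated with compound dilutions in DMSO/media for 48 h at 37 °C, 5% CO2. Viability read by CellTiter-Glo luminescence. Stereochemically undefined structures were tested as stereoisomer mixtures.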

The subject of experiment [6] is IL-2-FL/Gaussia Luciferase. Nature of the experiment: Dox Induced IL2-FL-Gluc Assay. Conditions: 293FRT/TO cells, read-out: 24 hr Dox Inducible IL2FLGIuc 293FRT/TO: Mean IC50. In outline: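 Stable T-REx cell line expressing doxycycline-inducible IL-2-FL/Gaussia luciferase cDNA, plated the day before assay. Compound dilutions in DMSO/media containing doxycycline added and incubated at 37° C., 5% CO2. Unspecified stereochemistry means data refer to a stereoisomer mixture.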

Setting [7] is: 24 hr doxycycline induction, Gaussia luciferase signal.

In general, EC50 refers to the concentration needed to bring the measured effect to its halfway point.

Like-named read-outs stand apart in the source and are kept apart here.

Regarding `O=C(Nc1ncc(Cl)s1)c1cccn1Cc1ccncc1` [Compound B1], the IC50 in experiment [1] (24 hr, doxycycline-induced) is greater than 25000 nM; in experiment [3] (24 hr, doxycycline-induced) it was 4320 nM; in experiment [4] (24 hr, doxycycline-induced), 1890 nM; in experiment [6] (24 hr, doxycycline-induced), 6280 nM. Further, the EC50 in experiment [2] and in experiment [5] was greater than 25000 nM throughout.
Take `CC(F)(F)c1csc(NC(=O)c2cccn2Cc2ccncc2)n1` [Compound A29, N-(4-(1,1-difluoroethyl)thiazol-2-yl)-1-(pyridin-4-ylmethyl)-1H-pyrrole-2-carboxamide]: the IC50 worked out at 19600 nM in experiment [1] (setting [7]), 1240 nM in experiment [3] (setting [7]), 488 nM in experiment [4] (setting [7]) and 935 nM in experiment [6] (setting [7]). Further, the EC50 in experiment [2] and in experiment [5] was greater than 25000 nM throughout.
Consider `CCS(=O)(=O)N1CCN(Cc2csc(NC(=O)c3cccn3Cc3ccncc3)n2)CC1` [Compound A96, N-(4-((4-(ethylsulfonyl)piperazin-1-yl)methyl)thiazol-2-yl)-1-(pyridin-4-ylmethyl)-1H-pyrrole-2-carboxamide], for which the IC50 is greater than 25000 nM in experiment [1] (setting [7]), greater than 25000 nM in experiment [3] (setting [7]), 15700 nM in experiment [4] (setting [7]) and greater than 25000 nM in experiment [6] (setting [7]). In addition, the EC50 in experiment [2] and in experiment [5] was greater than 25000 nM each time.
On to `O=C(Nc1nc(/C=C/c2ccc3c(c2)OC(F)(F)O3)cs1)c1cccn1Cc1ccncc1` [Compound A235, N-(4-(2-(2,2-difluorobenzo[d][1,3]dioxo1-5-yl)vinyl)thiazol-2-yl)-1-(pyridin-4-ylmethyl)-1H-pyrrole-2-carboxamide], for which the IC50 in experiment [1] (setting [7]) was greater than 25000 nM; in experiment [3] (setting [7]) it was 145 nM; in experiment [4] (setting [7]) it was 63 nM; in experiment [6] (setting [7]) it was 237 nM. Further, the EC50 in experiment [2] is 4150 nM; in experiment [5] it was greater than 25000 nM.
`CN(C)c1ccc(/C=C/c2csc(NC(=O)c3cccn3Cc3ccncc3)n2)cc1` [Compound A229]: the IC50 in experiment [1] (setting [7]) was 4580 nM; in experiment [3] (setting [7]), 568 nM; in experiment [4] (setting [7]), 66 nM; in experiment [6] (setting [7]), 1050 nM. Moreover, the values for the EC50 in experiment [2] and in experiment [5] were 24900 nM and greater than 25000 nM, respectively.
`O=C(Nc1nc(/C=C/c2ccc3c(n2)OCO3)cs1)c1cccn1Cc1ccncc1` [Compound A272]: the IC50 in experiment [1] (setting [7]) is greater than 25000 nM; in experiment [3] (setting [7]) it was 1720 nM; in experiment [4] (setting [7]), 261 nM; in experiment [6] (setting [7]), greater than 25000 nM. Besides, the EC50 in experiment [2] and in experiment [5] was greater than 25000 nM in each case.
With `O=C(Nc1nc(/C=C/c2ccc(OC3CC3)cc2F)cs1)c1cccn1Cc1ccncc1` [Compound A304], the IC50 turned out to be 236 nM in experiment [1] (24 hr, doxycycline-induced); 108 nM in experiment [3] (24 hr, doxycycline-induced); 20 nM in experiment [4] (24 hr, doxycycline-induced); 178 nM in experiment [6] (24 hr, doxycycline-induced). Besides, the EC50 in experiment [2] was 6270 nM; in experiment [5], 14300 nM.
Consider `O=C(Nc1nc([C@H]2C[C@@H]2c2ccccc2)cs1)c1cccn1Cc1ccncc1` [Compound A194, N-(4-((1S,2S)-2-phenylcyclopropyl)thiazol-2-yl)-1-(pyridin-4-ylmethyl)-1H-pyrrole-2-carboxamide], for which the IC50 worked out at 2300 nM in experiment [1] (setting [7]), 600 nM in experiment [3] (setting [7]), 280 nM in experiment [4] (setting [7]) and 1140 nM in experiment [6] (setting [7]). Besides, the EC50 in experiment [2] is 6670 nM; in experiment [5], 16000 nM.
Consider `O=C(Nc1ncc([N+](=O)[O-])s1)c1cccn1Cc1ccncc1` [Compound B17], for which the IC50 in experiment [1] (24 hr, doxycycline-induced) is greater than 25000 nM; in experiment [3] (24 hr, doxycycline-induced), greater than 25000 nM; in experiment [4] (24 hr, doxycycline-induced), greater than 25000 nM; in experiment [6] (24 hr, doxycycline-induced) it was greater than 25000 nM. Moreover, the EC50 in experiment [2] and in experiment [5] was greater than 25000 nM each time.
As for `O=C(Nc1nc([C@@H]2CCCN2c2ccccc2)cs1)c1cccn1Cc1ccncc1` [Compound A276], the IC50 in experiment [1] (setting [7]) came out at 2470 nM; in experiment [3] (setting [7]), 859 nM; in experiment [4] (setting [7]), 287 nM; in experiment [6] (setting [7]), 1500 nM. The values for the EC50 in experiment [2] and in experiment [5] were 19400 nM and greater than 25800 nM, respectively.
Consider `O=C(Nc1nc(C2CC(c3ccccc3)C2)cs1)c1cccn1CCCc1ccncc1` (stereo not drawn) [Compound A287], for which the IC50 was 1160 nM in experiment [1] (setting [7]), 181 nM in experiment [3] (setting [7]), 88 nM in experiment [4] (setting [7]) and 376 nM in experiment [6] (setting [7]). Besides, the EC50 in experiment [2] is 5060 nM; in experiment [5], greater than 25000 nM.
Regarding `CC(/C=C/c1csc(NC(=O)c2cccn2Cc2ccncc2)n1)c1ccccc1` (stereo not drawn) [Compound A251], the IC50 in experiment [1] (setting [7]) is 1420 nM; in experiment [3] (setting [7]), 344 nM; in experiment [4] (setting [7]), 125 nM; in experiment [6] (setting [7]), 549 nM. Also, the EC50 in experiment [2] is 11700 nM; in experiment [5] it was greater than 25000 nM.
For the compound `O=C(Nc1nc(/C=C/c2ncccn2)cs1)c1cccn1Cc1ccncc1` [Compound A307], the IC50 in experiment [1] (24 hr, doxycycline-induced) was greater than 25000 nM; in experiment [3] (24 hr, doxycycline-induced), 8810 nM; in experiment [4] (24 hr, doxycycline-induced) it was 679 nM; in experiment [6] (24 hr, doxycycline-induced) it was greater than 25000 nM. The 50% effective concentration (EC50) in experiment [2] and in experiment [5] was greater than 25000 nM throughout.
As to `O=C(Nc1nc2c(s1)COCC2)c1cccn1Cc1ccncc1` [Compound A95], the IC50 in experiment [1] (setting [7]) is greater than 25000 nM; in experiment [3] (setting [7]), greater than 25000 nM; in experiment [4] (setting [7]) it was 14700 nM; in experiment [6] (setting [7]), greater than 25000 nM. Also, the EC50 in experiment [2] and in experiment [5] was greater than 25000 nM each time.
Turning to `CC(C)OC(C)(C)c1csc(NC(=O)c2cccn2Cc2ccn(C)c(=O)c2)n1` [Compound A127, N-(4-(2-isopropoxypropan-2-yl)thiazol-2-yl)-1-((1-methyl-2-oxo-1,2-dihydropyridin-4-yl)methyl)-1H-pyrrole-2-carboxamide], the IC50 in experiment [1] (setting [7]), in experiment [3] (setting [7]), in experiment [4] (setting [7]) and in experiment [6] (setting [7]) was greater than 25000 nM each time. For the same compound, the concentration giving a half-maximal response (EC50) in experiment [2] and in experiment [5] was greater than 25000 nM each time.
On to `CO[C@@H]1CCN(c2ccccc2)C1c1csc(NC(=O)c2cccn2Cc2ccncc2)n1` (stereo partly drawn) [Compound A345], for which the IC50 was 100 nM in experiment [1] (24 hr, doxycycline-induced); 22 nM in experiment [3] (24 hr, doxycycline-induced); 11 nM in experiment [4] (24 hr, doxycycline-induced); 23 nM in experiment [6] (24 hr, doxycycline-induced). Besides, the values for the concentration giving a half-maximal response (EC50) in experiment [2] and in experiment [5] were 720 nM and greater than 25000 nM, respectively.
Take `CC(C)OC(C)(C)c1csc(NC(=O)c2cccn2CCOc2ccncc2)n1` [Compound A226, N-(4-(2-isopropoxypropan-2-yl)thiazol-2-yl)-1-(2-(pyridin-4-yloxy)ethyl)-1H-pyrrole-2-carboxamide]: the IC50 in experiment [1] (setting [7]) worked out at 7080 nM; in experiment [3] (setting [7]), 426 nM; in experiment [4] (setting [7]), 302 nM; in experiment [6] (setting [7]), 320 nM. For the same compound, the values for the EC50 in experiment [2] and in experiment [5] were 11900 nM and greater than 25000 nM, respectively.
As to `Cc1cccc(/C=C/c2csc(NC(=O)c3cccn3Cc3ccncc3)n2)n1` [Compound A356], the IC50 is 14400 nM in experiment [1] (24 hr, doxycycline-induced); 5410 nM in experiment [3] (24 hr, doxycycline-induced); 35 nM in experiment [4] (24 hr, doxycycline-induced); greater than 25000 nM in experiment [6] (24 hr, doxycycline-induced). In addition, the EC50 in experiment [2] is greater than 25000 nM; in experiment [5] it was 23800 nM.
For the compound `O=C(Nc1nc([C@H]2CC[C@H]2c2ccccc2)cs1)c1cccn1Cc1ccncc1` [Compound A324], the IC50 in experiment [1] (24 hr, doxycycline-induced) came to 3010 nM; in experiment [3] (24 hr, doxycycline-induced), 582 nM; in experiment [4] (24 hr, doxycycline-induced), 289 nM; in experiment [6] (24 hr, doxycycline-induced), 475 nM. Also, the EC50 in experiment [2] is 11300 nM; in experiment [5], greater than 25000 nM.
As to `COc1ccc(/C=C/c2csc(NC(=O)c3cccn3Cc3ccncc3)n2)cc1` [Compound A160, N-(4-(4-methoxystyryl)thiazol-2-yl)-1-(pyridin-4-ylmethyl)-1H-pyrrole-2-carboxamide], the IC50 in experiment [1] (setting [7]) turned out to be 1740 nM; in experiment [3] (setting [7]), 259 nM; in experiment [4] (setting [7]), 51 nM; in experiment [6] (setting [7]) it was 374 nM. Moreover, the EC50 in experiment [2] is 9100 nM; in experiment [5] it was greater than 25000 nM.
